biological target: T1, Androgen receptor (AR) (Homo sapiens, UniProt P10275, T878A); assay: Assessment of AR proteolytic activity (Western blotting of LNCap cell lysates); assay type: cell-based; details: 24 hours of treatment, Western blotting quantified with Image J
T1 construct: 5.5×10^5 LNCap cells were injected into each well of a 6-well plate; endogenous in cells; host or cells: LNCaP
T1 sequence (P10275 1-920 T878A): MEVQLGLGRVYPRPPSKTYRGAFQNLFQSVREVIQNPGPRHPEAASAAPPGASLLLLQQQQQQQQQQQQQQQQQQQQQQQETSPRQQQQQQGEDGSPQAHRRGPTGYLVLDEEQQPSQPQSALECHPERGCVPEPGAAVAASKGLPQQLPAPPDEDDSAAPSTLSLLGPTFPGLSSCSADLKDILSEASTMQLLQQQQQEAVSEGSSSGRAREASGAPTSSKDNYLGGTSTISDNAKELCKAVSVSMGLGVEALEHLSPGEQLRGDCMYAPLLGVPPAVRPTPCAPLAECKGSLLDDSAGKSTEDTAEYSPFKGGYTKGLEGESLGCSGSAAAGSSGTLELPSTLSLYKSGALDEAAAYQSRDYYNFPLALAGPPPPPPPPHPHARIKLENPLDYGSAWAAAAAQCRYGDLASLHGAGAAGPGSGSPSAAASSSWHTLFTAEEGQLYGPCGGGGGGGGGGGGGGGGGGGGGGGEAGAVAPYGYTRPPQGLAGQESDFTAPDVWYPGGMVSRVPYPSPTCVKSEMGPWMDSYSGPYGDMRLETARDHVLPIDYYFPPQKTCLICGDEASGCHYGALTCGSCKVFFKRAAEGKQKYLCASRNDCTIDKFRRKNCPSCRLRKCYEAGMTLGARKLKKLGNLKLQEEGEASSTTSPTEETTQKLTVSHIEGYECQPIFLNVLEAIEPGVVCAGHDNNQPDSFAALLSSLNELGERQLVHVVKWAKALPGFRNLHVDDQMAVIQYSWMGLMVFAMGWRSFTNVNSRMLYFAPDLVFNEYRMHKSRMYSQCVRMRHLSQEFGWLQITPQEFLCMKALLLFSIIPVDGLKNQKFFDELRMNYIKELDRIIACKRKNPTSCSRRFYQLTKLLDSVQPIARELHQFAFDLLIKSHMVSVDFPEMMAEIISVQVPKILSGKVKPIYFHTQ
Procedure: Assessment of AR Proteolytic Activity
Androgen receptor (AR) proteolytic activity of the compound according to the present invention was evaluated as follows: Specifically, 5.5×10^5 LNCap cells were injected into each well of a 6-well plate. […] After 24 hours of treatment, cells were collected and lysed using RIPA Lysis buffer (50 mM Tris-HCl, pH7.5, 150 mM NaCl, 1% Triton X-100, 2 mM EDTA, 0.1% SDS, 0.5% sodium deoxycholate and protease inhibitor cocktail) to make cell lysates. Western blotting was performed, and the results were quantified using Image J program.

SMILES	Degradation (1 μM treated in LNCaP, % AR remaining) [%]
CC1(C)C(NC(=O)c2ccc(N3CC[C@@H](CN4CC5(CCN(c6ccc7nnn(C8CCC(=O)NC8=O)c(=O)c7c6)CC5)C4)C3)nc2)C(C)(C)C1Oc1ccc(C#N)c(Cl)c1 (stereo partly drawn) [Example 188, N-((1r,3S)-3-(3-chloro-4-cyanophenoxy)-2,2,4,4-tetramethylcyclobutyl)-6-((3S)-3-((7-(3-(2,6-dioxopiperidin-3-yl)-4-oxo-3,4-dihydrobenzo[d][1,2,3]triazin-6-yl)-2,7-diazaspiro[3.5]nonan-2-yl)methyl)pyrrolidin-1-yl)nicotinamide]	21
CC1(C)C(NC(=O)c2ccc(N3CC[C@H](CN4CCC5(CC4)CN(c4ccc6c(=O)n(C7CCC(=O)NC7=O)nnc6c4)C5)C3)nc2)C(C)(C)C1Oc1ccc(C#N)c(Cl)c1 (stereo partly drawn) [Example 189, N-((1r,3R)-3-(3-chloro-4-cyanophenoxy)-2,2,4,4-tetramethylcyclobutyl)-6-((3R)-3-((2-(3-(2,6-dioxopiperidin-3-yl)-4-oxo-3,4-dihydrobenzo[d][1,2,3]triazin-7-yl)-2,7-diazaspiro[3.5]nonan-7-yl)methyl)pyrrolidin-1-yl)nicotinamide]	14
CC1(C)[C@H](NC(=O)c2ccc(N3CC[C@H](CN4CC5(C4)CN(c4ccc6c(=O)n(C7CCC(=O)NC7=O)nnc6c4)C5)C3)nc2)C(C)(C)[C@H]1Oc1ccc(C#N)c(Cl)c1 (stereo partly drawn) [Example 190, N-((1r,3R)-3-(3-chloro-4-cyanophenoxy)-2,2,4,4-tetramethylcyclobutyl)-6-((3R)-3-((6-(3-(2,6-dioxopiperidin-3-yl)-4-oxo-3,4-dihydrobenzo[d][1,2,3]triazin-7-yl)-2,6-diazaspiro[3.3]heptan-2-yl)methyl)pyrrolidin-1-yl)nicotinamide]	11
CC1(C)C(NC(=O)c2ccc(N3CC[C@H](CN4CCN(C5CCN(c6ccc7c(=O)n(C8CCC(=O)NC8=O)nnc7c6)CC5)CC4)C3)nc2)C(C)(C)C1Oc1ccc(C#N)c(Cl)c1 (stereo partly drawn) [Example 191, N-((1r,3R)-3-(3-chloro-4-cyanophenoxy)-2,2,4,4-tetramethylcyclobutyl)-6-((3R)-3-((4-(1-(3-(2,6-dioxopiperidin-3-yl)-4-oxo-3,4-dihydrobenzo[d][1,2,3]triazin-7-yl)piperidin-4-yl)piperazin-1-yl)methyl)pyrrolidin-1-yl)nicotinamide]	33
CC1(C)C(NC(=O)c2ccc(N3CC[C@H](CN4CCN(C5CCN(c6ccc7nnn(C8CCC(=O)NC8=O)c(=O)c7c6)CC5)CC4)C3)nc2)C(C)(C)C1Oc1ccc(C#N)c(Cl)c1 (stereo partly drawn) [Example 192, N-((1r,3R)-3-(3-chloro-4-cyanophenoxy)-2,2,4,4-tetramethylcyclobutyl)-6-((3R)-3-((4-(1-(3-(2,6-dioxopiperidin-3-yl)-4-oxo-3,4-dihydrobenzo[d][1,2,3]triazin-6-yl)piperidin-4-yl)piperazin-1-yl)methyl)pyrrolidin-1-yl)nicotinamide]	22
CC1(C)C(NC(=O)c2ccc(N3CCC(CN4CCN(C5CCN(c6ccc7c(=O)n(C8CCC(=O)NC8=O)nnc7c6)CC5)CC4)CC3)nc2)C(C)(C)C1Oc1ccc(C#N)c(Cl)c1 (stereo not shown) [Example 193, N-((1r,3r)-3-(3-chloro-4-cyanophenoxy)-2,2,4,4-tetramethylcyclobutyl)-6-(4-((4-(1-(3-(2,6-dioxopiperidin-3-yl)-4-oxo-3,4-dihydrobenzo[d][1,2,3]triazin-7-yl)piperidin-4-yl)piperazin-1-yl)methyl)piperidin-1-yl)nicotinamide]	12
CC1(C)C(NC(=O)c2ccc(N3CCC(CN4CCN(C5CCN(c6ccc7nnn(C8CCC(=O)NC8=O)c(=O)c7c6)CC5)CC4)CC3)nc2)C(C)(C)C1Oc1ccc(C#N)c(Cl)c1 (stereo not shown) [Example 194, N-((1r,3r)-3-(3-chloro-4-cyanophenoxy)-2,2,4,4-tetramethylcyclobutyl)-6-(4-((4-(1-(3-(2,6-dioxopiperidin-3-yl)-4-oxo-3,4-dihydrobenzo[d][1,2,3]triazin-6-yl)piperidin-4-yl)piperazin-1-yl)methyl)piperidin-1-yl)nicotinamide]	9

— US20240018123A1, “COMPOUND FOR INHIBITING OR DISINTEGRATING ANDROGEN RECEPTOR, AND PHARMACEUTICAL USE THEREOF” (KOREA RESEARCH INSTITUTE OF CHEMICAL TECHNOLOGY, priority 2020, published 2024)
